From patent US9227977B2, “Phosphoinositide 3-kinase inhibitors” (RESPIVERT LTD., priority 2013, dated 2016)

Legend:
[1] = tested on: poly-I:C-induced cell accumulation in mice airways; assay: Poly-I:C-induced cell accumulation in mice; type: in vivo, mouse; settings: for % inhibition, Macrophages in BALF / % inhibition, Neutrophils in BALF / Cell numbers in BALF, Macrophages / Cell numbers in BALF, Neutrophils: mice, poly I:C, intra-nasal; for Cell numbers in BALF, Macrophages / Cell numbers in BALF, Neutrophils: mean ± SEM
Protocol: Specific pathogen-free A/J mice (males, 5 weeks old) were dosed with poly (I:C)-LMW (1 mg/mL, 40 μL) (InvivoGen, San Diego, Calif., USA) intranasally twice daily for 3 days under anaesthasia (3% isoflurane). Test substances were dosed intra-nasally (50 μL in 10% DMSO/isotonic saline vehicle) 2 hr before each poly-I:C treatment. At 24 hr after the last poly-I:C challenge, animals were anesthetized, the trachea was cannulated and bronchial alveolar lavage (BAL) was obtained by instilling into and then withdrawing from the lungs, isotonic saline (100 mL/kg). Total cell numbers in the BALF samples were measured using a haemocytometer under a phase-contrast microscope.
The proportions of alveolar macrophages and neutrophils were determined by FACS analysis using anti-mouse MOMA2-FITC (macrophage) or anti-mouse 7/4-FITC (neutrophil). Cells were suspended in PBS and incubated with anti-MOMA2-FITC (2 μg/mL, Catalogue no SM065F, Acris Antibodies GmbH, Herford, Germany) or anti-7/4-FITC (2 μg/mL, Catalogue no CL050F, Acris Antibodies GmbH, Herford, Germany) for 30 min at 30° C., and then counterstained with propidium iodide (2 μg/mL) to allow exclusion of necrotic cells. The cells were washed with PBS, and transferred to FACS tubes. Samples was set in a flow cytometer (ALTRA II; Beckman Coulter Japan, Tokyo, Japan), and a single-parameter FL2 [PMT2] (FITC) histogram with log x-axis was plotted to illustrate relative intensity of FITC, Data files were stored for subsequent analysis using Kaluza analysis software (ver. 1.2) to calculate the proportion of each cell type.

[2] = tested on: d-U937 cells; assay: MTT assay, cell viability; type: cell-based, human
Protocol: PMA-differentiated U937 cells were pre-incubated with test compound (10 μg/mL) or vehicle for 4 hr in 5% FCS or 10% FCS for 24 hr. The supernatant was replaced with new media (200 μL) and MTT stock solution (10 μL, 5 mg/mL) was added to each well. After 1 hr incubation, the media were removed, 200 μL of DMSO was added to each well and the plates were shaken lightly for 1 hr prior to reading the absorbance at 550 nm. The percentage loss of cell viability was calculated for each well relative to vehicle (0.5% DMSO)-treatment.

[3] = target: PI3K γ (Homo sapiens (Human), UniProt P48736); assay: PI3K γ cell based assay: MCP-1-induced Akt phosphorylation in d-U937 cells; settings: inhibition of induced Akt phosphorylation, MCP-1 stimulus; read-out: REC50 values in d-U937 cells, MCP-1 stimulus
Protocol: As a means of assessing the activation of PI3K γ in response to stimuli, the phosphorylation status of the protein, Akt, a downstream product of PI3K γ signalling, was determined following stimulation with MCP-1.
U937 cells were differentiated to macrophage-type cells by incubation with PMA (100 ng/mL) for 48 to 72 hr. Cells were then pre-incubated with either the test compound or vehicle for 2 hr and were then stimulated briefly with MCP-1 (10 nM, 1 min) and the reaction stopped by replacing the media with 4% formaldehyde solution. […] After washing with buffer (PBS containing 0.1% Triton X-100), cells were incubated with an HRP-conjugated secondary antibody (Dako) and the resultant signal was determined colorimetrically (OD: 450 nm with a reference wavelength of 655 nm) using TMB substrate (substrate reagent pack supplied by R&D Systems, Inc.).
This reaction was stopped by addition of 1N H2SO4 solution (100 μL). […] After washing with buffer (PBS containing 0.1% Triton X-100) 1% SDS (100 μL) was added to each well and the plates were shaken lightly for 1 hr prior to measuring the absorbance at 595 nm (Varioskan® Flash, Thermo-Fisher Scientific). The measured OD450-655 readings were corrected for cell number by dividing the OD450-655 by the OD595 readings. The ratio of pAkt signal to total Akt signal was used to quantitate the extent of PI3K γ activation. […]

PI3K γ, sequence (P48736 whole entry): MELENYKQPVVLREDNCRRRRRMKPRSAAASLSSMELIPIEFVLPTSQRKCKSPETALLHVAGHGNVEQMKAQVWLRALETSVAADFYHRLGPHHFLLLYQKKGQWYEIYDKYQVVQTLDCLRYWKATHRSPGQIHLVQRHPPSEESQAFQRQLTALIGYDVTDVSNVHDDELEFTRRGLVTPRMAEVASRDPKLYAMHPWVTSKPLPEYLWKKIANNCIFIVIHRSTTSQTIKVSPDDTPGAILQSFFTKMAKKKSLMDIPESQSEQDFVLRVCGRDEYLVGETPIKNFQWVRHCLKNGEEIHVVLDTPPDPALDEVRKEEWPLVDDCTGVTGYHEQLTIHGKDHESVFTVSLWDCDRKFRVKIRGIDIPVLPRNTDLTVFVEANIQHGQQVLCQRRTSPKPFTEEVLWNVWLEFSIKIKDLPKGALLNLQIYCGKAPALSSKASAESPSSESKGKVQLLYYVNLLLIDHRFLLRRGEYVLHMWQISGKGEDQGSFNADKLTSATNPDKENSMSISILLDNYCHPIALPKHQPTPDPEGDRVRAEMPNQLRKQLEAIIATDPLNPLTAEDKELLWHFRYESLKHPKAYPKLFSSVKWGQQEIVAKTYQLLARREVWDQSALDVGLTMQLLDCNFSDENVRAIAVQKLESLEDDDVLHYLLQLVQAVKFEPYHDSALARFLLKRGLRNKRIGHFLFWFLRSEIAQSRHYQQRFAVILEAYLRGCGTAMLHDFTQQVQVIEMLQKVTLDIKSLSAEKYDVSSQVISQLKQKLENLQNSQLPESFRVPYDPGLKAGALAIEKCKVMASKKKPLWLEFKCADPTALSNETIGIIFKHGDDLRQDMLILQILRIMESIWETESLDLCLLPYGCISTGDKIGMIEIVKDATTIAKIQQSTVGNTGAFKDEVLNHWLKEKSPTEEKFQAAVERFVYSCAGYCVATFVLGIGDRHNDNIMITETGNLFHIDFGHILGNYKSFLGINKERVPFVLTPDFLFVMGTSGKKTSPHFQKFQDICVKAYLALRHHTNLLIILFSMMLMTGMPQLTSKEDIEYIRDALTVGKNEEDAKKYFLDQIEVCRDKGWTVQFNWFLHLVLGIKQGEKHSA

Compound: COCCOCCOCC#Cc1cccc2nc(Cn3nc(-c4cc(O)cc(F)c4)c4c(N)ncnc43)n(Cc3ccccc3C(F)(F)F)c(=O)c12 [Compound (I), 2-((4-Amino-3-(3-fluoro-5-hydroxyphenyl)-1H-pyrazolo[3,4-d]pyrimidin-1-yl)methyl)-5-(3-(2-(2-methoxyethoxy)ethoxy)prop-1-yn-1-yl)-3-(2-(trifluoromethyl)benzyl)quinazolin-4(3H)-one]
- potency versus compound A on poly-I:C-induced cell accumulation (in words) ([1]; direct comparison): significantly greater potency than compound A
- % inhibition, Macrophages in BALF ([1]; 0.002 mg/mL): 49%
- % inhibition, Neutrophils in BALF ([1]; 0.002 mg/mL): 43%
- Cell numbers in BALF, Macrophages ([1]; 0.002 mg/mL): 11.5 ± 0.2 x10^4/mL
- Cell numbers in BALF, Neutrophils ([1]; 0.002 mg/mL): 7.3 ± 0.3 x10^4/mL
- % inhibition, Macrophages in BALF ([1]; 0.02 mg/mL): 69%
- % inhibition, Neutrophils in BALF ([1]; 0.02 mg/mL): 65%
- Cell numbers in BALF, Macrophages ([1]; 0.02 mg/mL): 8.3 ± 0.3 x10^4/mL
- Cell numbers in BALF, Neutrophils ([1]; 0.02 mg/mL): 5.0 ± 0.2 x10^4/mL
- % inhibition, Macrophages in BALF ([1]; 0.2 mg/mL): 79%
- % inhibition, Neutrophils in BALF ([1]; 0.2 mg/mL): 77%
- Cell numbers in BALF, Macrophages ([1]; 0.2 mg/mL): 6.8 ± 0.3 x10^4/mL
- Cell numbers in BALF, Neutrophils ([1]; 0.2 mg/mL): 3.8 ± 0.2 x10^4/mL
- effects on cell viability (in words) [2]: No effects
- Cell Viability MTT Assay in d-U937 cells at 4 hr ([2]; 10 μg/mL, 4 hr): −ve (−ve indicates a value of <30% inhibition at 10 μg/mL)
- Cell Viability MTT Assay in d-U937 cells at 24 hr ([2]; 10 μg/mL, 24 hr): −ve (−ve indicates a value of <30% inhibition at 10 μg/mL)
- EC50 [3]: 16.5 nM
